Data taken from patent US20100160454A1, “ANTIMICROBIAL AGENTS, COMPOSITIONS AND PRODUCTS CONTAINING THE SAME, AND METHODS OF USING THE COMPOSITIONS AND PRODUCTS” (Eastman Chemical Company, priority 2008, published 2010).

Columns and labels:
Experiment in all cases: Microbiological challenge testing in BPW broth, graded subculture counts
Type in all cases: cell-based
[1] = tested on: Staphylococcus epidermidis ATCC 12228
Description: (§1) The microorganisms in the table below were used in challenge tests. They were either ATCC (American Type Culture Collection) or “wild type” as indicated. Wild type organisms were problematic organisms previously isolated from chemical products.
(§2) All of the microorganisms were grown in Tryptose Soy Broth (TSB), DIFCO™ available from Becton, Dickinson and Company, containing 1% dextrose. Candida albicans and Aspergillus niger, were incubated at 22° C.+/−2° C. for at least 96 hours. All bacteria were incubated at 35° C.+/−2° C. in a humidified incubator for at least 96 hours.
(§3) The following procedure was followed to determine the amount of each challenge material (inoculum broth) needed to produce a 10^8 CFU/mL challenge, which is equivalent to a final test-sample microbial concentration of 10^5 to 10^6 CFU/mL (CFU=colony forming units).
(§4) Using a sterile pipette, 1 mL of the growth from each TSB culture was transferred into tubes of 9 mL buffered water (pH 7.2 phosphate buffer) and mixed thoroughly. This was repeated to make serial 1:10 dilutions. Then, 0.1 mL of each sample and dilution was inoculated onto agar plates to produce the equivalent of a further 1:10 dilution. (C. albicans and A. niger were inoculated onto SABD and bacteria were inoculated onto Plate Count Agar (PCA), DIFCO™ available from Becton, Dickinson and Company.) (The normal volume plated for most samples was 0.1 mL. Some samples that could be very low in micro-organisms (high dilutions) were plated using 0.5 mL of inoculum, in order to produce reproducible counts.) The samples were distributed on the plates using the spread-plate technique. The spread-plate technique is carried out by spreading the sample over the entire plate surface using a sterile spreading rod while rotating the plate with a rotary auto-plater. After the inoculum was absorbed completely by the agar, each plate was inverted and incubated (fungi at 22° C.+/−2° C. and bacteria at 35° C.+/−2° C.).
(§5) After incubation for at least 48 hours, colonies that had developed on the agar plates were counted (CFU) and recorded with the corresponding dilution. If counting had to be delayed temporarily, plates were refrigerated, preferably no more than 24 hours, until they could be counted. The number of CFU/mL was determined by multiplying the plate count by the dilution factor of the plate counted.
(§6) Turbidity in Nepholemetric Turbidity Units (NTU) was measured for each serial dilution using the HF-Micro 100 Model Turbidimeter. For each microorganism, the plate counts were compared to the turbidity readings.
(§7) Control substrates (“broth alone”) were prepared for each microorganism separately in triplicate by adding 13.5 mL of Buffered Peptone Water broth (BPW) containing 1% dextrose to each 20-mL glass tube, then adding 1.5 mL challenge material to produce a final concentration at time zero of 10^5 to 10^6 CFU/mL and a total volume of 15 mL.
(§8) Test sample substrates were prepared containing each test material listed below at the concentrations shown for challenge testing with each microorganism separately. Sample substrates were prepared in triplicate, except the substrates containing butoxyethanol which were prepared in duplicate. Substrates were prepared by adding BPW containing 1% dextrose to each 20-mL glass tube, then adding the test material in the amount appropriate to achieve the desired weight/volume percent and to achieve a total volume of BPW plus dextrose plus test material of 13.5 mL. Then 1.5 mL challenge material was added to produce a final concentration at time zero of 10^5 to 10^6 CFU/mL and a total test sample substrate volume of 15 mL.

[2] = tested on: Escherichia coli ATCC 25922; conditions: E. Coli
Description: as §1, §2, §3, §4, §5, §6, §7, §8

[3] = tested on: Streptococcus mutans ATCC 35668
Description: as §1, §2, §3, §4, §5, §6, §7, §8

[4] = tested on: Staphylococcus aureus ATCC 25923; conditions: S. aureus
Description: as §1, §2, §3, §4, §5, §6, §7, §8

With `CC1(C)C(O)C(C)(C)C1O` (stereo not drawn) [TMCBD, 2,2,4,4-tetramethyl-1,3-cyclobutanediol] the “S. epidermidis growth grade, 3 day” value ([1]; 2.5% weight/volume) was 2 (52 to 100 colonies counted (thus 520 to 1000 CFU/mL)), the “S. epidermidis growth grade, 13 day” value ([1]; 2.5% weight/volume) was 2 (52 to 100 colonies counted (thus 520 to 1000 CFU/mL)) and the “S. epidermidis growth grade, 30 day” value ([1]; 2.5% weight/volume) was 2 (52 to 100 colonies counted (thus 520 to 1000 CFU/mL)). The “S. epidermidis growth grade, 3 day” value ([1]; 5.0% weight/volume) was 1 (0 to 51 colonies counted (thus 10 to 510 CFU/mL based on 0.1-mL sample)), the “S. epidermidis growth grade, 13 day” value ([1]; 5.0% weight/volume) was 0 and the “S. epidermidis growth grade, 30 day” value ([1]; 5.0% weight/volume) was 0. The Grade ([2]; 0.5% (wt/vol), 3 day) was 5 (More than 10,000 colonies estimated (thus more than 100,000 CFU/mL)), the Grade ([2]; 0.5% (wt/vol), 14 day) was 5 (More than 10,000 colonies estimated (thus more than 100,000 CFU/mL)) and the Grade ([2]; 0.5% (wt/vol), 30 day) was 5 (More than 10,000 colonies estimated (thus more than 100,000 CFU/mL)). The Grade ([2]; 1.25% (wt/vol), 3 day) was 4 (1000 to 10,000 colonies countable (thus 10,000 CFU/mL to 100,000 CFU/mL)), the Grade ([2]; 1.25% (wt/vol), 14 day) was 4 (1000 to 10,000 colonies countable (thus 10,000 CFU/mL to 100,000 CFU/mL)) and the Grade ([2]; 1.25% (wt/vol), 30 day) was 4 (1000 to 10,000 colonies countable (thus 10,000 CFU/mL to 100,000 CFU/mL)). For the same compound, the Grade ([2]; 2.5% (wt/vol), 3 day) was 4 (1000 to 10,000 colonies countable (thus 10,000 CFU/mL to 100,000 CFU/mL)), the Grade ([2]; 2.5% (wt/vol), 14 day) was 4 (1000 to 10,000 colonies countable (thus 10,000 CFU/mL to 100,000 CFU/mL)) and the Grade ([2]; 2.5% (wt/vol), 30 day) was 4 (1000 to 10,000 colonies countable (thus 10,000 CFU/mL to 100,000 CFU/mL)). For the same compound, the Grade ([2]; 5.0% (wt/vol), 3 day) was 0, the Grade ([2]; 5.0% (wt/vol), 14 day) was 0 and the Grade ([2]; 5.0% (wt/vol), 30 day) was 0. For the same compound, the “S. mutans growth grade, 3 day” value ([3]; 0.5% weight/volume) was 4 (1000 to 10,000 colonies countable (thus 10,000 CFU/mL to 100,000 CFU/mL)), the “S. mutans growth grade, 13 day” value ([3]; 0.5% weight/volume) was 4 (1000 to 10,000 colonies countable (thus 10,000 CFU/mL to 100,000 CFU/mL)) and the “S. mutans growth grade, 30 day” value ([3]; 0.5% weight/volume) was 4 (1000 to 10,000 colonies countable (thus 10,000 CFU/mL to 100,000 CFU/mL)). For the same compound, the “S. mutans growth grade, 3 day” value ([3]; 1.25% weight/volume) was 4 (1000 to 10,000 colonies countable (thus 10,000 CFU/mL to 100,000 CFU/mL)), the “S. mutans growth grade, 13 day” value ([3]; 1.25% weight/volume) was 4 (1000 to 10,000 colonies countable (thus 10,000 CFU/mL to 100,000 CFU/mL)) and the “S. mutans growth grade, 30 day” value ([3]; 1.25% weight/volume) was 4 (1000 to 10,000 colonies countable (thus 10,000 CFU/mL to 100,000 CFU/mL)). The “S. mutans growth grade, 3 day” value ([3]; 2.5% weight/volume) was 3 (100 to 1000 colonies (thus 1000 to 10,000 CFU/mL)), the “S. mutans growth grade, 13 day” value ([3]; 2.5% weight/volume) was 1 (0 to 51 colonies counted (thus 10 to 510 CFU/mL based on 0.1-mL sample)) and the “S. mutans growth grade, 30 day” value ([3]; 2.5% weight/volume) was 0. For the same compound, the “S. mutans growth grade, 3 day” value ([3]; 5.0% weight/volume) was 0, the “S. mutans growth grade, 13 day” value ([3]; 5.0% weight/volume) was 0 and the “S. mutans growth grade, 30 day” value ([3]; 5.0% weight/volume) was 0. For the same compound, the Grade ([4]; 0.5% (wt/vol), 3 day) was 4 (1000 to 10,000 colonies countable (thus 10,000 CFU/mL to 100,000 CFU/mL)), the Grade ([4]; 0.5% (wt/vol), 14 day) was 4 (1000 to 10,000 colonies countable (thus 10,000 CFU/mL to 100,000 CFU/mL)) and the Grade ([4]; 0.5% (wt/vol), 30 day) was 4 (1000 to 10,000 colonies countable (thus 10,000 CFU/mL to 100,000 CFU/mL)). For the same compound, the Grade ([4]; 1.25% (wt/vol), 3 day) was 4 (1000 to 10,000 colonies countable (thus 10,000 CFU/mL to 100,000 CFU/mL)), the Grade ([4]; 1.25% (wt/vol), 14 day) was 4 (1000 to 10,000 colonies countable (thus 10,000 CFU/mL to 100,000 CFU/mL)) and the Grade ([4]; 1.25% (wt/vol), 30 day) was 4 (1000 to 10,000 colonies countable (thus 10,000 CFU/mL to 100,000 CFU/mL)). For the same compound, the Grade ([4]; 2.5% (wt/vol), 3 day) was 2 (52 to 100 colonies counted (thus 520 to 1000 CFU/mL)), the Grade ([4]; 2.5% (wt/vol), 14 day) was 1 (0 to 51 colonies counted (thus 10 to 510 CFU/mL based on 0.1-mL sample)) and the Grade ([4]; 2.5% (wt/vol), 30 day) was 1 (0 to 51 colonies counted (thus 10 to 510 CFU/mL based on 0.1-mL sample)). For the same compound, the Grade ([4]; 5.0% (wt/vol), 3 day) was 0, the Grade ([4]; 5.0% (wt/vol), 14 day) was 0 and the Grade ([4]; 5.0% (wt/vol), 30 day) was 0.
